The record followed here is patent US11993640B2, “Treating inflammatory lung disease” (United States Government as represented by the Department …, priority 2019, dated 2024).

The structures appear in SMILES notation. Non-standard residues stand in square brackets, D forms with d. Residues, ends and D or L forms follow the SMILES beside them. *: point of attachment. Phe(F5) = N[C@@H](Cc1c(F)c(F)c(F)c(F)c1F)C(=O)O; hArg = N=C(N)NCCCC[C@H](N)C(=O)O; 12Ado = NCCCCCCCCCCCC(=O)O; Nle = CCCC[C@H](N)C(=O)O; Orn = NCCC[C@H](N)C(=O)O; Abu = CC[C@H](N)C(=O)O; PhAc = O=C(Cc1ccccc1)*

The subject of one assay is OVCAR-3 cells. The assay can be described thus: In vitro cell viability, ovarian cancer OVCAR-3. In kind it is cell-based, human. The conditions noted are these: * at concentration of 2 μM for 72 h; Table 3B. On the procedure: The inhibitory effects of the various synthesized GHRH antagonists were tested in cell proliferation assays in various human cancer cell lines including stomach cancer (KATOIII, N87), colon cancer (HT-29), urothelial cancer (J82, RT4), pancreatic cancer (PANC-1, CFPAC-1), prostatic cancer (PC3), breast cancer (MX-1, HCC1806), ovarian cancer (SK-OV-3, OVCAR-3) and lung cancer (HCC827, H460).
Cell culture. Human cancer cell lines including pancreatic (PANC-1 and CFPAC-1), lung (HCC827 and H460), stomach (NCI-N87 and KATOIII), urothelial (J82, RT4), prostatic (PC3), breast (MX-1 and HCC 1806), colorectal (HT-29), and ovarian (SK-OV-3 and OVCAR-3) were obtained from the American Type Culture Collection (ATCC) and cultured at 37° C. in a humidified 95% air/5% CO2 atmosphere in the medium recommended by ATCC.
In vitro cell viability. Cell viability was analyzed as follows: cancer cells including pancreatic (PANC-1 and CFPAC-1), lung (HCC827 and H460), stomach (NCI-N87 and KATOIII), urothelial (J82, RT4), prostatic (PC3) and breast (MX-1 and HCC 1806), colorectal (HT-29) and ovarian (SK-OV-3 and OVCAR-3) were grown on 96 well plates to ˜60% confluence, the cells were starved for 24 h in culture medium containing 0.5% FBS. […] Cell viability was measured using CellTiter 96 aqueous one solution kit (Promega). […]

In assay [1] the test system is C57Bl/6J mice treated with bleomycin. The assay can be described thus: Bleomycin lung injury model, lung hydroxyproline assay. In kind it is in vivo, mouse. On the procedure:
(§1) Experimental animals. 8-week old C57Bl/6J male mice (The Jackson Laboratory, Bar Harbor, ME) were used in these experiments. Mice weighed about 26 grams at the start. Mice were randomly allocated to the experimental groups and housed in identical filter top cages in a ventilated rack. Mice were exposed to a 12-hour light/dark cycle and had free access to standard laboratory chow and water.
(§2) Bleomycin and GHRH-R antagonist treatment. Mice were treated with 0.8 units of bleomycin (Bleomycin for Injection USP, Hospira, Lake Forest, IL) intraperitoneally (IP) on days 1, 3, 7, 10, 14 and 21 (Collins S, Chan-Li Y, Oh M, Vigeland C, Limjunyawong N, Mitzner W, Powell J D, Horton M R (2016). JCI Insight 1(4):1-13). Mice (randomly assigned) were simultaneously treated subcutaneously (sc) with MIA-602 (5 μg/day) or its vehicle (100 μL/day). MIA-602 was dissolved in DMSO (ACS grade; Sigma-Aldrich) and diluted 1:500 in normal saline for daily sc injection on days 0-21.
Tissue preparations. Mice were killed by CO2 inhalation before any treatment, or on days 14 or 28 for micro-CT scans of lungs and harvesting of lung tissue (Vande Velde G, Poelmans J, De Langhe E, Hillen A, Vanoirbeek J, Himmelreich U, Lories R (2016). Dis Model Mech 9:91). […]
Hydroxyproline assay. […] Hydroxyproline was measured colorimetrically (560 nm) after hydrolysis using an assay kit (MAK008, Sigma-Aldrich, St. Louis, MO). […]

The test system is the same in assay [2]. The assay can be described thus: Bleomycin lung injury model, lung histopathology scores (inflammation, modified Ashcroft fibrosis). In kind it is in vivo, mouse. On the procedure:
as §1, §2
Tissue preparations. Mice were killed by CO2 inhalation before any treatment, or on days 14 or 28 for micro-CT scans of lungs and harvesting of lung tissue (Vande Velde G, Poelmans J, De Langhe E, Hillen A, Vanoirbeek J, Himmelreich U, Lories R (2016). Dis Model Mech 9:91). The right mainstem bronchus was ligated and the right lung removed and frozen at −80° C. for hydroxyproline (HP) assays. The left lung was filled with 10% buffered formalin at ˜25 cm H2O pressure, the bronchus ligated, and the lung fixed in formalin. Fixed lungs were embedded in wax and 5 μm sections stained with hematoxylin and eosin (H&E) or Masson's trichrome stain.
Lung histopathology. Fibrosis was quantified in trichrome-stained sections using a modification of the Ashcroft score that describes grades of fibrosis. Inflammation in lung tissue was quantified in H&E stained sections (Hubner R, Gitter W, El Mokhtari N, Mathiak M, Both M, Bolte H, Freitag-Wolf S, Bewig B (2008). Biotechniques 44:507-517).
Data analysis. Data are reported as arithmetic means±SEM or SD as indicated. […]

Setting [3] is: day 28, bleomycin-treated mice, MIA-602 5 μg/day sc days 1-21.

As for `CCCC[C@H](NC(=O)[C@@H](NC(=O)[C@H](CC(=O)O)NC(=O)[C@H](CCC(N)=O)NC(=O)[C@H](CC(C)C)NC(=O)[C@H](CC(C)C)NC(=O)[C@H](CCCN)NC(=O)[C@H](Cc1c[nH]cn1)NC(=O)[C@H](C)NC(=O)[C@H](CO)NC(=O)[C@H](CC(C)C)NC(=O)[C@H](CCC(N)=O)NC(=O)[C@H](CC)NC(=O)[C@H](CC(C)C)NC(=O)[C@@H](NC(=O)[C@H](CCCN)NC(=O)[C@H](Cc1c[nH]cn1)NC(=O)[C@H](Cc1ccc(OC)cc1)NC(=O)[C@H](CCCCNC(=N)N)NC(=O)[C@H](C)NC(=O)[C@@H](NC(=O)[C@H](Cc1c(F)c(F)c(F)c(F)c1F)NC(=O)[C@@H](NC(=O)[C@H](C)NC(=O)[C@H](CC(=O)O)NC(=O)[C@@H](CCCNC(=N)N)NC(=O)[C@H](Cc1ccc(O)cc1)NC(=O)CCCCCCCCCCCNC(=O)Cc1ccccc1)[C@@H](C)CC)[C@@H](C)O)C(C)C)[C@@H](C)CC)C(=O)N[C@H](CCCNC(=N)N)C(=O)N[C@@H](CCCCNC(=N)N)C(N)=O` [MIA-602, PhAC-Ada, Tyr D-Arg, Asp, Ala, Ile, 5FPhe, Thr, Ala, Har, Tyr(Me), His, Orn, Val, Leu, Abu, Gin, Leu, Ser, Ala, His, Orn, Leu, Leu, Gin, Asp, Ile, Nle, D-Arg, Har NH2, reference compound] ({PhAc-12Ado}-Y[dR]DAI[Phe(F5)]TA[hArg]Y(Me)H[Orn]VL[Abu]QLSAH[Orn]LLQDI[Nle][dR][hArg]-NH2), in the assay with OVCAR-3 cells, the “In vitro relative inhibitory potency in comparison to MIA-602, OVCAR-3” value is 1. Moreover, the “Lung hydroxyproline (HP) content” value in assay [1] (day 14, MIA-602 5 μg/day sc, bleomycin IP) is “did not increase significantly”. In addition, the “Lung hydroxyproline (HP) content” value in assay [1] (day 28, MIA-602 5 μg/day sc days 1-21, bleomycin IP, compared to naive) is given as “No significant increase in HP content”. Moreover, in assay [2] (bleomycin-treated mice, days 14 and 28), the “Lung inflammatory changes and fibrosis, histopathology” value is “Both inflammatory changes and fibrosis were decreased”. Also, in assay [2] (setting [3]), the “Lung fibrosis histopathologic score, 5%-95% CI” value was 1.1-2.9 and the “Lung fibrosis histopathologic score, range” value is 1.0-3.0.
